Tested on: KRAS-mutant PDC tumor spheroid with HUVEC/MSC, viability
Experiment: Anticancer human tumor 327498-153-R-J2-PDC patient-derived uterine carcinosarcoma cell line growth inhibition [KRAS2]
Details: for IC50: curve of first compound; for viability, T/C: stronger effect = lower value; active = viability on the fitted dose curve at most 10% of control; inactive = the rest
Method in brief: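 Combination screen of spheroid viability in tumor-cell co-cultures with endothelial (HUVEC) and mesenchymal stem cell stroma. Each agent was tested in half-log dilutions, topping at clinical Cmax or at 10 microM without a known Cmax.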

[1] = second compound 0.1 µM, first compound 0.0316 µM
[2] = second compound 0.1 µM, first compound 0.1 µM
[3] = second compound 0.1 µM, first compound 0.316 µM
[4] = second compound 0.1 µM, first compound 1 µM
[5] = second compound 0.1 µM, first compound 3.16 µM
[6] = second compound 0.1 µM, first compound 10 µM
[7] = second compound 0.316 µM, first compound 0.0316 µM
[8] = second compound 0.316 µM, first compound 0.1 µM
[9] = second compound 0.316 µM, first compound 0.316 µM
[10] = second compound 0.316 µM, first compound 1 µM
[11] = second compound 0.316 µM, first compound 3.16 µM
[12] = second compound 0.316 µM, first compound 10 µM
[13] = second compound 1 µM, first compound 0.0316 µM
[14] = second compound 1 µM, first compound 0.1 µM
[15] = second compound 1 µM, first compound 0.316 µM
[16] = second compound 1 µM, first compound 1 µM
[17] = second compound 1 µM, first compound 3.16 µM
[18] = second compound 1 µM, first compound 10 µM
[19] = second compound 3.16 µM, first compound 0.0316 µM
[20] = second compound 3.16 µM, first compound 0.1 µM
[21] = second compound 3.16 µM, first compound 0.316 µM
[22] = second compound 3.16 µM, first compound 1 µM
[23] = second compound 3.16 µM, first compound 3.16 µM
[24] = second compound 3.16 µM, first compound 10 µM
[25] = second compound 0.0316 µM, first compound 0.0316 µM
[26] = second compound 0.0316 µM, first compound 0.1 µM
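Also: spheroids exposed to agents for seven days before reading.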
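For viability, T/C in this document: 100% = DMSO vehicle wells so lower means fewer viable cells.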

CC1OCC2(CCN(c3cnc(Sc4ccnc(N)c4Cl)c(N)n3)CC2)C1N (stereo not given) + COc1cc2nc(C)nc(NC(C)c3cc(N)cc(C(F)(F)F)c3)c2cc1OC1CCOC1
< 31.6 nM: IC50 (second compound 10 µM)
129 nM: IC50 (second compound 0.1 µM)
99.3 nM: IC50 (second compound 1 µM)
inactive: viability, T/C [1] 72.8% | viability, T/C [2] 46.9% | viability, T/C [3] 44.7% | viability, T/C [4] 34.4% | viability, T/C [5] 29.3% | viability, T/C [6] 23.6% | viability, T/C [7] 61.6% | viability, T/C [8] 47.5% | viability, T/C [9] 39.8% | viability, T/C [10] 32.3% | viability, T/C [11] 29.6% | viability, T/C [12] 27.8% | viability, T/C [13] 61.6% | viability, T/C [14] 50.2% | viability, T/C [15] 39.6% | viability, T/C [16] 32.8% | viability, T/C [17] 27.8% | viability, T/C [18] 22.7% | viability, T/C [19] 58% | viability, T/C [20] 43.3% | viability, T/C [21] 39.6% | viability, T/C [22] 28.7% | viability, T/C [23] 23.5% | viability, T/C [24] 23.7% | viability, T/C (second compound 10 µM, first compound 0.0316 µM) 49.5% | viability, T/C (second compound 10 µM, first compound 0.1 µM) 37.5% | viability, T/C (second compound 10 µM, first compound 0.316 µM) 31.2% | viability, T/C (second compound 10 µM, first compound 1 µM) 25.2% | viability, T/C (second compound 10 µM, first compound 3.16 µM) 25.3% | viability, T/C (second compound 10 µM, first compound 10 µM) 16.2%
85.5 nM: IC50 (second compound 0.316 µM)
64.8 nM: IC50 (second compound 3.16 µM)

COc1cc(Nc2ncc3c(n2)-c2ccc(Cl)cc2C(c2c(F)cccc2OC)=NC3)ccc1C(=O)O + C=CC(=O)N1CCN(c2nc(OCC3CCCN3C)nc3c2CCN(c2cccc4cccc(C)c24)C3)CC1CC#N
active: viability, T/C [8] 8.78% | viability, T/C [9] 8.53% | viability, T/C [10] 8.2% | viability, T/C [11] 9.27% | viability, T/C [12] 9.77% | viability, T/C [14] 8.65% | viability, T/C [15] 7.42% | viability, T/C [16] 6.83% | viability, T/C [17] 7.63% | viability, T/C [18] 6.7% | viability, T/C [19] 2.49% | viability, T/C [20] 2.27% | viability, T/C [21] 1.67% | viability, T/C [22] 0.13% | viability, T/C [23] 0.95% | viability, T/C [24] 0.23%
inactive: viability, T/C [25] 13.7% | viability, T/C [26] 11.9% | viability, T/C (second compound 0.0316 µM, first compound 0.316 µM) 11.5% | viability, T/C (second compound 0.0316 µM, first compound 1 µM) 9.41% | viability, T/C (second compound 0.0316 µM, first compound 3.16 µM) 11.3% | viability, T/C (second compound 0.0316 µM, first compound 10 µM) 10.4% | viability, T/C [1] 12.7% | viability, T/C [2] 11.3% | viability, T/C [3] 10.2% | viability, T/C [4] 9.02% | viability, T/C [5] 12.1% | viability, T/C [6] 10.4% | viability, T/C [7] 10.2% | viability, T/C [13] 10.3%
< 31.6 nM: IC50 (second compound 0.0316 µM) | IC50 (second compound 0.1 µM) | IC50 (second compound 0.316 µM) | IC50 (second compound 1 µM) | IC50 (second compound 3.16 µM)

Cn1ncnc1[C@H]1c2n[nH]c(=O)c3cc(F)cc(c23)N[C@@H]1c1ccc(F)cc1 + C=CC(=O)N1CCN(c2nc(OCC3CCCN3C)nc3c2CCN(c2cccc4cccc(C)c24)C3)CC1CC#N
1.97 nM: IC50 (second compound 0.316 µM)
3.84 nM: IC50 (second compound 0.1 µM)
7.27 nM: IC50 (second compound 0.0316 µM)
active: viability, T/C (second compound 3.16 µM, first compound 0.000316 µM) 0.23% | viability, T/C (second compound 3.16 µM, first compound 0.001 µM) 0.18% | viability, T/C (second compound 3.16 µM, first compound 0.00316 µM) 0.94% | viability, T/C (second compound 3.16 µM, first compound 0.01 µM) 0.16% | viability, T/C [19] 0.18% | viability, T/C [20] 0.22%
< 0.316 nM: IC50 (second compound 1 µM) | IC50 (second compound 3.16 µM)
inactive: viability, T/C (second compound 0.0316 µM, first compound 0.000316 µM) 77.5% | viability, T/C (second compound 0.0316 µM, first compound 0.001 µM) 69.2% | viability, T/C (second compound 0.0316 µM, first compound 0.00316 µM) 63.3% | viability, T/C (second compound 0.0316 µM, first compound 0.01 µM) 45.2% | viability, T/C [25] 28.2% | viability, T/C [26] 16.9% | viability, T/C (second compound 0.1 µM, first compound 0.000316 µM) 54.5% | viability, T/C (second compound 0.1 µM, first compound 0.001 µM) 57.5% | viability, T/C (second compound 0.1 µM, first compound 0.00316 µM) 54.3% | viability, T/C (second compound 0.1 µM, first compound 0.01 µM) 35.2% | viability, T/C [1] 21.9% | viability, T/C [2] 14.6% | viability, T/C (second compound 0.316 µM, first compound 0.000316 µM) 56.1% | viability, T/C (second compound 0.316 µM, first compound 0.001 µM) 48.5% | viability, T/C (second compound 0.316 µM, first compound 0.00316 µM) 49.8% | viability, T/C (second compound 0.316 µM, first compound 0.01 µM) 32.8% | viability, T/C [7] 18.7% | viability, T/C [8] 13.7% | viability, T/C (second compound 1 µM, first compound 0.000316 µM) 44% | viability, T/C (second compound 1 µM, first compound 0.001 µM) 53.7% | viability, T/C (second compound 1 µM, first compound 0.00316 µM) 37.1% | viability, T/C (second compound 1 µM, first compound 0.01 µM) 25.4% | viability, T/C [13] 17.1% | viability, T/C [14] 12.3%

— PubChem BioAssay AID1963867 (Molecular Pharmacology Branch, DTP, NCI, 2024)
